These compounds were tested against T1, TDO2 (Homo sapiens, UniProt P48775) (assay: TDO2 cell assay (NFK GreenScreen, SW48 cells)). Conditions: SW48 cells (high TDO expressing), 200 uM tryptophan, 24 hours; Table 3; read-out: TDO2 Cell Fluor EC50.
T1 construct: decreased levels of NFK in SW48 cells (high TDO expressing cells)
Type: cell-based
Description: The NFK GreenScreen™ (NTRC, Netherlands) uses a specific chemical probe that binds to N-Formylkynurenine (NFK), a product of tryptophan catabolism facilitated by IDO or TDO and causes fluorescence at 510 nm when excited at 410 nm. […] The assay is multiplexed with Cell Titer-Glo® (Promega) to determine if compounds are cytotoxic. […] Cells are counted on a Vi-Cell (Beckman Coulter). SW48 cells are diluted to 1×10^6 cells/ml in assay media. A172 cells are diluted to 0.24×10^6 cells/ml in assay media. […] 5 ul of assay media containing 1.2 mM tryptophan are added to the SW48 cells for a final concentration of 200 uM tryptophan in each well. 5 ul of assay media containing 600 uM tryptophan and 600 ng/ml IFNγ are added to the A172 cells for a final concentration of 100 uM tryptophan and 100 ng/ml IFNγ in each well. The final DMSO concentration is 0.5%. Cell plates are placed at room temperature in a closed TC hood with the blower off to allow cells to settle for approximately 30 min. Plates are then moved to an incubator set at 37° C., 5% CO2 for 24 hours. After the 24 hour compound incubation, 8 ul of NFK green reagent is added to each well with a Multidrop™ Combi dispenser (Thermo Scientific). Plates are sealed and incubated at 37° C., 5% CO2 for 5 hours, then read on a PHERAstar® (BMG labtech). Data are analyzed by normalizing to DMSO and high inhibitor controls. After the plates have been read for NFK green, 25 ul of Cell Titer-Glo® (Promega) are added to each well, incubated for 15 minutes at room temperature, and read on the Envision (Perkin Elmer). Cell Titer-Glo data are analyzed by normalizing to the DMSO controls. Four-parameter curve fitting is used and EC50 data are reported.

T1 sequence (P48775 whole entry): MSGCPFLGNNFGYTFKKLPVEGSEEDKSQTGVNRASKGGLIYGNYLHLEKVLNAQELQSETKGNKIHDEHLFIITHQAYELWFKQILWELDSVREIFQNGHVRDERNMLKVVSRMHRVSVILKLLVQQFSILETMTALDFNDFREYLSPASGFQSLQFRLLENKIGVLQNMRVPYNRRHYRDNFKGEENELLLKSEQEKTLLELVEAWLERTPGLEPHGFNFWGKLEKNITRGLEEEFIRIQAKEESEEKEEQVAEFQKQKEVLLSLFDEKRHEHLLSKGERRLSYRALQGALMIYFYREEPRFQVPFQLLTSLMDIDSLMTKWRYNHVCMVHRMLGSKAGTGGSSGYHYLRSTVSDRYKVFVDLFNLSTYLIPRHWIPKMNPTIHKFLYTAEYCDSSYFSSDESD

Row | Structure (SMILES) | EC50 [µM]
1 | OC1CC(CF)(CF)C1C1c2ccccc2-c2cncn21 (single isomer, unassigned) [Example 150b] | 2.1
2 | OC1CC(CF)(CF)C1C1c2ccccc2-c2cncn21 (single isomer, unassigned) [Example 150d] | 18
3 | OC1CC(CF)(CF)C1C1c2ccccc2-c2cncn21 (single isomer, unassigned) [Example 150e] | 0.053
4 | OC1CC(CF)(CF)C1C1c2ccccc2-c2cncn21 (single isomer, unassigned) [Example 150f] | 11
5 | O[C@@H]1c2c(F)cnn2CC[C@@H]1[C@@H]1c2ccccc2-c2cncn21 (single isomer, unassigned) [Example 151b] | > 25
6 | OC1c2c(F)cnn2CCC1C1c2ccccc2-c2cncn21 (single isomer, unassigned) [Example 151c] | > 25
7 | O[C@@H]1c2c(F)cnn2CC[C@H]1[C@H]1c2ccccc2-c2cncn21 (single isomer, unassigned) [Example 151d] | 0.13
8 | OC(c1ccncc1)C1c2ccccc2-c2cncn21 (single isomer, unassigned) [Example 152a] | 14
9 | OC(c1ccncc1)C1c2ccccc2-c2cncn21 (single isomer, unassigned) [Example 152b] | > 25
10 | OC(c1ccncc1)C1c2ccccc2-c2cncn21 (single isomer, unassigned) [Example 152c] | > 25
11 | OC(c1ccncc1)C1c2ccccc2-c2cncn21 (single isomer, unassigned) [Example 152d] | > 25
12 | N#CC1(C(O)C2c3ccccc3-c3cncn32)CC1 (single isomer, unassigned) [Example 153a] | 0.62
13 | N#CC1(C(O)C2c3ccccc3-c3cncn32)CC1 (single isomer, unassigned) [Example 153b] | 11
14 | OC(C1c2ccccc2-c2cncn21)C1(F)CC1 (single isomer, unassigned) [Example 154a] | 0.13
15 | OC(C1c2ccccc2-c2cncn21)C1(F)CC1 (single isomer, unassigned) [Example 154b] | > 25
16 | OC(C1c2ccccc2-c2cncn21)C1(F)CC1 (single isomer, unassigned) [Example 154c] | 5.4
17 | OC(C1c2ccccc2-c2cncn21)C1(F)CC1 (single isomer, unassigned) [Example 154d] | 13
18 | CC(C)(C(N)=O)C(O)C1c2ccccc2-c2cncn21 (single isomer, unassigned) [Example 155b] | > 25
19 | CC(C)(C(N)=O)C(O)C1c2ccccc2-c2cncn21 (single isomer, unassigned) [Example 155c] | 21
20 | CC(C)(C(N)=O)C(O)C1c2ccccc2-c2cncn21 (single isomer, unassigned) [Example 155d] | > 25
21 | N#Cc1cnn2c1C(O)C(C1c3ccccc3-c3cncn31)CC2 (single isomer, unassigned) [Example 156a] | > 25
22 | N#Cc1cnn2c1C(O)C(C1c3ccccc3-c3cncn31)CC2 (single isomer, unassigned) [Example 156b] | 0.24
23 | N#Cc1cnn2c1[C@@H](O)[C@@H]([C@H]1c3ccccc3-c3cncn31)CC2 (single isomer, unassigned) [Example 156c] | 19
24 | N#Cc1cnn2c1[C@@H](O)[C@@H]([C@H]1c3ccccc3-c3cncn31)CC2 (single isomer, unassigned) [Example 156d] | > 25
25 | N#Cc1cnn2c1C(O)C(C1c3ccccc3-c3cncn31)CC2 (single isomer, unassigned) [Example 156e] | 0.25
26 | N#Cc1cnn2c1[C@@H](O)[C@H]([C@H]1c3ccccc3-c3cncn31)CC2 (single isomer, unassigned) [Example 156f] | > 25
27 | OC1c2[nH]ncc2CCC1C1c2ccccc2-c2cncn21 (single isomer, unassigned) [Example 157a] | 0.37
28 | O[C@@H]1c2[nH]ncc2CC[C@H]1[C@@H]1c2ccccc2-c2cncn21 (single isomer, unassigned) [Example 157b] | 22
